The assay deals with Beta-secretase 1 (Homo sapiens, UniProt P56817). Description: Enzyme Inhibition Measurements. The note with it: pH 4.5; 37 °C.
Chain of Beta-secretase 1 (P56817 whole entry): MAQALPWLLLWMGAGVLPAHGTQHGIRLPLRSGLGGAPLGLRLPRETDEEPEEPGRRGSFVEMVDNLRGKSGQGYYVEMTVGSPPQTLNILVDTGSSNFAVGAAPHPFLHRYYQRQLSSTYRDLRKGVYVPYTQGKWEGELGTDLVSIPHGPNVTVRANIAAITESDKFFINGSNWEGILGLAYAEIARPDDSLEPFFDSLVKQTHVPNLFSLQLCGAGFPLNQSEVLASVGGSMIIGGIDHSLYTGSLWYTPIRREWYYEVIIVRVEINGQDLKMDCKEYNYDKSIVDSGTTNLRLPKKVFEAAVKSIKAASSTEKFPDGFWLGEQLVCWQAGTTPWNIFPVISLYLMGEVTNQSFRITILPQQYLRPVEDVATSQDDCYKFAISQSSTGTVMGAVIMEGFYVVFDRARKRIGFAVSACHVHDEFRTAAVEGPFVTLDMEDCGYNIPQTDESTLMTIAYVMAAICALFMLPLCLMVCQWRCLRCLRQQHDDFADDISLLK

Procedure: Enzyme activities were assayed by monitoring the hydrolysis of substrate in the presence or absence of inhibitor compounds. The hydrolysis was recorded as the increase in fluorescence intensity over a 10 min time period. […] The Ki was calculated by using Ki = IC50/ (1 + [S]/Km), and a Km value determined according to Michaelis-Menten.

Consider `CC(C)C[C@H](NC(=O)[C@H](CC(N)=O)NC(=O)[C@@H](N)C(C)C)[C@@H](O)C[C@@H](C)C(=O)N[C@@H](C)C(=O)N[C@@H](CCC(=O)O)C(=O)N[C@@H](Cc1ccccc1)C(=O)O` [Val-Asn-LeuAla-Ala-Glu-Phe], for which the affinity corresponds to a Ki of 36 nM.

A word on the Ki: it is the dissociation constant of the complex between target and ligand, obtained from inhibition or displacement. A higher Ki goes with lower affinity.

The record behind these values is BindingDB's records for doi:10.1021/jm0101803 (University of Illinois At Chicago, 2001).
